One block for each compound: values may come before it.
How the values were obtained:
Histone deacetylase 1 [1] = target: T1, Histone deacetylase 1 (Homo sapiens, UniProt Q13547); assay: Inhibition of recombinant human HDAC1 using a fluorogenic substrate at 10 uM by fluorescence method
Histone deacetylase 1 [2] = target: T1, Histone deacetylase 1; assay: Inhibition of recombinant human HDAC1 using a fluorogenic substrate at 1 uM by fluorescence method
HCT-116 [3] = assay: Antiproliferative activity against human HCT116 cells after 48 to 72 hrs by MTT assay; type: functional, cell-based
K562 = assay: Antiproliferative activity against human K562 cells after 48 to 72 hrs by MTT assay; type: functional, cell-based
PC-3 [4] = assay: Antiproliferative activity against human PC3 cells after 48 to 72 hrs by MTT assay; type: functional, cell-based
MRC5 = assay: Antiproliferative activity against human MRC5 cells after 48 to 72 hrs by MTT assay; type: cell-based
A549 = assay: Antiproliferative activity against human A549 cells after 48 to 72 hrs by MTT assay; type: functional, cell-based
[5] = target: Voltage-gated inwardly rectifying potassium channel KCNH2 (Homo sapiens, UniProt Q12809); assay: Inhibition of recombinant human ERG expressed in HEK293 cells after 9 mins by patch clamp method
Histone deacetylase 1 [6] = target: T1, Histone deacetylase 1; assay: Inhibition of recombinant human HDAC1 using a fluorogenic substrate by fluorescence method
[7] = Volume of distribution at steady state in Sprague-Dawley rat at 2 mg/kg, iv administered as single dose by HPLC-MS method; type: ADME, organism-based; settings: in vivo, read-out: Vdss
[8] = AUC in Sprague-Dawley rat at 10 mg/kg, po administered as single dose by HPLC-MS method; type: ADME, organism-based; settings: in vivo
Mus musculus [9] = assay: Toxicity in mouse xenografted with HCT116 cells assessed as weight loss at 50 mg/kg, po daily for 21 days; type: organism-based; settings: in vivo, 504 h
[10] = Cmax in Sprague-Dawley rat at 10 mg/kg, po administered as single dose by HPLC-MS method; type: ADME, organism-based; set-up: dose 10 mg/kg, route oral; settings: in vivo
[11] = Oral bioavailability in Sprague-Dawley rat at 10 mg/kg administered as single dose by HPLC-MS method; type: ADME, organism-based; settings: in vivo
HCT-116 [12] = assay: Antitumor activity against human HCT116 cells xenografted in mouse assessed as tumor growth inhibition at 25 mg/kg, po daily for 21 days; type: functional; settings: HCT-116, po, 504 h, read-out: TGI
HCT-116 [13] = assay: Antitumor activity against human HCT116 cells xenografted in mouse assessed as tumor growth inhibition at 50 mg/kg, po daily for 21 days; type: functional; settings: HCT-116, po, 504 h, read-out: TGI
Mus musculus [14] = assay: Toxicity in mouse xenografted with HCT116 cells assessed as weight loss at 100 mg/kg, po daily measured for 12 days; type: organism-based; settings: in vivo, 288 h
[15] = Terminal half life in Sprague-Dawley rat at 2 mg/kg, iv administered as single dose by HPLC-MS method; type: ADME, organism-based; settings: in vivo, read-out: beta t1/2 (converted)
HCT-116 [16] = assay: Antitumor activity against human HCT116 cells xenografted in mouse assessed as tumor growth inhibition at 100 mg/kg, po daily for 21 days; type: functional; settings: HCT-116, po, 504 h, read-out: TGI
Mus musculus [17] = assay: Toxicity in mouse xenografted with HCT116 cells assessed as weight loss at 25 mg/kg, po daily for 21 days; type: organism-based; settings: in vivo, 504 h
[18] = Clearance in Sprague-Dawley rat at 2 mg/kg, iv administered as single dose by HPLC-MS method; type: ADME, organism-based; settings: in vivo
HCT-116 [19] = assay: Antitumor activity against human HCT116 cells xenografted in po dosed mouse assessed as tumor growth inhibition administered daily for 21 days; type: functional, organism-based
[20] = Tmax in Sprague-Dawley rat at 10 mg/kg, po administered as single dose by HPLC-MS method; type: ADME, organism-based; settings: in vivo
Histone deacetylase 1 [21] = target: T1, Histone deacetylase 1; assay: Inhibition of recombinant human HDAC1 expressed in Baculovirus insect cell expression system using [3H]-metabolically labeled acetylated histone substrate after 30 mins by scintillation counting
PC-3 [22] = assay: Antitumor activity against human PC3 cells xenografted in nude mouse assessed as tumor growth inhibition at 100 mg/kg, ig administered 7 days per week for 3 weeks; type: functional; settings: PC-3, po, read-out: TGI

T1 sequence (Q13547 whole entry): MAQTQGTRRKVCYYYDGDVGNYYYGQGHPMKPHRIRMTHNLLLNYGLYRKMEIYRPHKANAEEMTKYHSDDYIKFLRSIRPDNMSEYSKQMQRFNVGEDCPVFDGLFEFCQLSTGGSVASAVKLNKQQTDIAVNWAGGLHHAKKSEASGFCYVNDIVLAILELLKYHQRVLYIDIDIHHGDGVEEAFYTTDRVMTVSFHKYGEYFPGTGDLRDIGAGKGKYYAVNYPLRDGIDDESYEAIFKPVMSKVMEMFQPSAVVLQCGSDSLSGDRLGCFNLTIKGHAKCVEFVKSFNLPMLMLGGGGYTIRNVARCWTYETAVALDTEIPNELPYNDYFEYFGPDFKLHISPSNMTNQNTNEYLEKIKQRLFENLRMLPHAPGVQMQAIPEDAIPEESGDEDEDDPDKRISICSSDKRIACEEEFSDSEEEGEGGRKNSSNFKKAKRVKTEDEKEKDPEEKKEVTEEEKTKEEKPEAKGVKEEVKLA
Chain of Voltage-gated inwardly rectifying potassium channel KCNH2 (Q12809 whole entry): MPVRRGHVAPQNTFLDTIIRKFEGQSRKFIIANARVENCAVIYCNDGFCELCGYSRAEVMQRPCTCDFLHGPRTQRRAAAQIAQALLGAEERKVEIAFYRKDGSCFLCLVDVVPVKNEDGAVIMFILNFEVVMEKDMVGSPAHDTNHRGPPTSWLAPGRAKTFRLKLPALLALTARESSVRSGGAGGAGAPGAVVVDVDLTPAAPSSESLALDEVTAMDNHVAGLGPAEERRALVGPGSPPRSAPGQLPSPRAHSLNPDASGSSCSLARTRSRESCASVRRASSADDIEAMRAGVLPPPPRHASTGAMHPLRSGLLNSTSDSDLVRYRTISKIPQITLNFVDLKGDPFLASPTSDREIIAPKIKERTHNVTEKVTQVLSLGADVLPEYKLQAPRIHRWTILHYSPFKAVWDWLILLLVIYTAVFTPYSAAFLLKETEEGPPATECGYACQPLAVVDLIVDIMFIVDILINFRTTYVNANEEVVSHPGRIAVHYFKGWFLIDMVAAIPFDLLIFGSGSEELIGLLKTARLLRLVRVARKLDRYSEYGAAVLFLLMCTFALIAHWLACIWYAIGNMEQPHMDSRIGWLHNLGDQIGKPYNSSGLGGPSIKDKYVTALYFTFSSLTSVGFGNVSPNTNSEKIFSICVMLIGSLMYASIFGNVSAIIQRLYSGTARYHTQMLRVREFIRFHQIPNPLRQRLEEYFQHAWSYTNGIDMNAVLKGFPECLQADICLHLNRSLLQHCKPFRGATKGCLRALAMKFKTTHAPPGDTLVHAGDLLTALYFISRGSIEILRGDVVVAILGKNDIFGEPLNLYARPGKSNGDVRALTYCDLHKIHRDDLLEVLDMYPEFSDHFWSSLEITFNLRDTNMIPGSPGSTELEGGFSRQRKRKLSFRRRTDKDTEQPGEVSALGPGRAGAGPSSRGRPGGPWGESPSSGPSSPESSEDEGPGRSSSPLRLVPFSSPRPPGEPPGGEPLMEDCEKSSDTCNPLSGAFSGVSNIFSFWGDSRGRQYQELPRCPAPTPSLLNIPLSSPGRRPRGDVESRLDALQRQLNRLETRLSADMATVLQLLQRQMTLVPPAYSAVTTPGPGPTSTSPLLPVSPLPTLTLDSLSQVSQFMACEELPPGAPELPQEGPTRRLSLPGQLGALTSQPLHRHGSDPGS

- inhibition (Histone deacetylase 1 [1]): 66.9%
- inhibition (Histone deacetylase 1 [2]): 45.3%
Compound: COc1cccc(/C=C/C(=O)N2CCN(c3ccc(C(=O)Nc4ccccc4N)cc3)CC2)c1

- inhibition (Histone deacetylase 1 [1]): 53.8%
- inhibition (Histone deacetylase 1 [2]): 18.1%
Compound: Nc1ccccc1NC(=O)c1ccc(N2CCN(C(=O)/C=C/c3cccnc3)CC2)cc1

- inhibition (Histone deacetylase 1 [1]): 53.4%
- inhibition (Histone deacetylase 1 [2]): 18%
Compound: Nc1cc(F)ccc1NC(=O)c1ccc(N2CCN(C(=O)/C=C/c3ccc4c(c3)OCO4)CC2)cc1

- IC50 (HCT-116 [3]): 0.202 µM
- IC50 (K562): 0.975 µM
- IC50 (PC-3 [4]): 2.09 µM
- inhibition (Histone deacetylase 1 [1]): 81.3%
- inhibition (Histone deacetylase 1 [2]): 55.1%
- IC50 (A549): 0.665 µM
Compound: Nc1ccc(F)cc1NC(=O)c1ccc(CNC(=O)/C=C/c2cccnc2)cc1
- IC50 (MRC5): > 30 µM

- IC50 (HCT-116 [3]): 0.765 µM
- IC50 (Histone deacetylase 1 [6]): 0.903 µM
- IC50 (K562): 2.96 µM
- IC50 (PC-3 [4]): 8.71 µM
- inhibition (Histone deacetylase 1 [1]): 87.8%
- inhibition (Histone deacetylase 1 [2]): 50.2%
- IC50 (A549): 0.53 µM
Compound: COc1ccc(/C=C/C(=O)N2CCN(c3ccc(C(=O)Nc4ccccc4N)cc3)CC2)cc1
- IC50 [5]: 25.1 µM
- IC50 (MRC5): > 30 µM

- IC50 (HCT-116 [3]): 1.98 µM
- IC50 (Histone deacetylase 1 [6]): 0.983 µM
- IC50 (K562): 1.1 µM
- IC50 (PC-3 [4]): 2.14 µM
- inhibition (Histone deacetylase 1 [1]): 79%
- inhibition (Histone deacetylase 1 [2]): 52%
- IC50 (A549): 0.811 µM
Compound: Nc1ccccc1NC(=O)c1ccc(N2CCN(C(=O)/C=C/c3ccc(F)cc3)CC2)cc1
- IC50 (MRC5): > 30 µM

- IC50 (HCT-116 [3]): 0.069 µM
- Vd [7]: 0.11 L/kg
- AUC [8]: 8910 ng·h/mL
- IC50 (Histone deacetylase 1 [6]): 0.798 µM
- Cmax [10]: 2510 ng/mL
- bioavailability [11]: 36.3%
- IC50 (K562): 4.86 µM
- IC50 (PC-3 [4]): 3.96 µM
- inhibition (Histone deacetylase 1 [1]): 94.2%
- half-life [15]: 64.2 min
- inhibition (Histone deacetylase 1 [2]): 56.3%
- IC50 (A549): 0.135 µM
- clearance [18]: 7.5 mL/min/kg
- Tmax [20]: 25.8 min
Compound: Cc1ccc(/C=C/C(=O)N2CCN(c3ccc(C(=O)Nc4ccccc4N)cc3)CC2)cc1
- IC50 [5]: 27.1 µM
- Activity (Mus musculus [9]): 11.3%
- inhibition in vivo at 25 mg/kg (HCT-116 [12]): 42.4%
- inhibition in vivo at 50 mg/kg (HCT-116 [13]): 55.1%
- IC50 (MRC5): > 30 µM
- Activity (Mus musculus [14]): 19.2%
- inhibition in vivo at 100 mg/kg (HCT-116 [16]): 76.3%
- Activity (Mus musculus [17]): < 5%
- TGI (HCT-116 [19]): Dose-dependent effect

- inhibition (Histone deacetylase 1 [1]): 66.8%
- inhibition (Histone deacetylase 1 [2]): 34.3%
Compound: Nc1ccccc1NC(=O)c1ccc(N2CCN(C(=O)/C=C/c3ccccc3)CC2)cc1

- inhibition (Histone deacetylase 1 [1]): 58.8%
- inhibition (Histone deacetylase 1 [2]): 36%
Compound: Nc1cc(F)ccc1NC(=O)c1ccc(N2CCN(C(=O)/C=C/c3ccc(F)cc3)CC2)cc1

- inhibition (Histone deacetylase 1 [1]): 75.5%
- inhibition (Histone deacetylase 1 [2]): 49.6%
Compound: Nc1ccccc1NC(=O)c1ccc(N2CCN(C(=O)/C=C/c3ccc4c(c3)OCO4)CC2)cc1

- inhibition (Histone deacetylase 1 [1]): 60.5%
- inhibition (Histone deacetylase 1 [2]): 21.8%
Compound: COc1cc(/C=C/C(=O)N2CCN(c3ccc(C(=O)Nc4ccccc4N)cc3)CC2)cc(OC)c1OC

- inhibition (Histone deacetylase 1 [1]): 19.2%
- inhibition (Histone deacetylase 1 [2]): 4.71%
Compound: Nc1cc(F)ccc1NC(=O)c1ccc(N2CCN(C(=O)/C=C/c3cccnc3)CC2)cc1

- inhibition (Histone deacetylase 1 [1]): 64.3%
- inhibition (Histone deacetylase 1 [2]): 17.4%
Compound: Cc1ccc(/C=C/C(=O)N2CCN(c3ccc(C(=O)Nc4ccc(F)cc4N)cc3)CC2)cc1

- IC50 (Histone deacetylase 1 [21]): 3.3 µM
Compound: COc1ccc(/C=C/C(=O)NCc2ccc(C(=O)Nc3ccncc3N)cc2)cc1
- inhibition in vivo at 100 mg/kg (PC-3 [22]): 39%

- inhibition (Histone deacetylase 1 [1]): 79.2%
- inhibition (Histone deacetylase 1 [2]): 46.5%
Compound: COc1ccc(/C=C/C(=O)N2CCN(c3ccc(C(=O)Nc4ccccc4N)cc3)CC2)cc1OC
